Tests used:
[1] = molecular target: hCRTH2 receptor (Homo sapiens (Human), UniProt Q9Y5Y4); test: hCRTH2 receptor membranes radioligand (3H-PGD2) displacement assay; assay type: binding; settings: 3H-PGD2 radioligand displacement, HEK293-hCRTH2 membranes
Outline: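 HEK293-hCRTH2 membranes, 20 μg/well; 3H-PGD2 added at 2.5 nM; binding buffer 50 mM Tris, 10 mM MnCl2, 1 mM EDTA, pH 7.0; 90 min RT; GF/C filtration, scintillation count. Nonspecific binding: PGD2 at […].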

[2] = system: eosinophils; test: Eosinophil shape change assay with human plasma; assay type: cell-based; settings: Homo sapiens, Eosinophil, human plasma (50%), PGD2 100 nM activation, antagonistic activity
Text: Eosinophil Shape Change Assay with Human Plasma
After obtaining informed consent, blood samples were drawn by venipuncture according to the protocol approved by the ethics committee of Basel, Switzerland. Polymorphonuclear leukocytes (containing eosinophils, basophils and neutrophils) were isolated using the Polymorphprep™ method (Axis-Shield). […] The polymorphonuclear cell fraction was harvested and depleted for erythrocytes by hypotonic saline lysis.
The polymorphonuclear cells were resuspended in assay buffer (1×PBS with Ca^2+/Mg^2+ supplemented with 0.1% BSA, 10 mM HEPES, and 10 mM Glucose, pH 7.4) at 5×10^6 cells/ml and stained with anti-CD49d-APC ((APC=Allophycocyanin) for 1 hour at RT. Test compounds, at various concentrations, were preincubated 10 min in human plasma (anticoagulated with a thrombin inhibitor). Then, human plasma was added to the polymorphonuclear cells to 50% of final assay volume with polymorphonuclear cells at 4×10^6 cells/ml. After incubation for 10 minutes at 37° C., the polymorphonuclear cells were activated for 5 min at 37° C. by addition of PGD2 at 100 nM final concentration. Activation was stopped by addition of 0.5 ml paraformaldehyde (1%).
Immediately after fixation with paraformaldehyde, the samples were analyzed by FACSCanto flow cytometer (BD Biosciences) and target cells were identified by their forward-scatter (FSC) and side-scatter (SSC) characteristics. Eosinophils were identified by the anti-CD49d-APC signal and their characteristic side-scatter (SSC) profile. Shape change responses, indicative of eosinophil activation, were quantified as the percent of cells with an increased forward-scatter.

Sequence of hCRTH2 receptor (Q9Y5Y4 whole entry): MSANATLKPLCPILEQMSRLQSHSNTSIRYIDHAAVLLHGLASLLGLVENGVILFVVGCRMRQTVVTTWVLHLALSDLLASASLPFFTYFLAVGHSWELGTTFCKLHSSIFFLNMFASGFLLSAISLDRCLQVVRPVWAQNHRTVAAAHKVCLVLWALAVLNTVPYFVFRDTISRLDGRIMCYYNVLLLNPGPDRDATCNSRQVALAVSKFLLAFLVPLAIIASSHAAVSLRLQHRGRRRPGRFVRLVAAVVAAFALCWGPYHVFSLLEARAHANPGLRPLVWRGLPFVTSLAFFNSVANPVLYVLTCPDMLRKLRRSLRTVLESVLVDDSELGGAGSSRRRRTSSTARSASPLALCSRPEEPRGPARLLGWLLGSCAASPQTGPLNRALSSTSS

Question: With `COc1ccc(CC(=O)O)cc1-c1cc(F)c(F)c2c1CN(C(=O)[C@@H]1C[C@H]1c1ccccc1)CC2` [Example 84, {3-[5,6-Difluoro-2-((1R,2R)-2-phenyl-cyclopropanecarbonyl)-1,2,3,4-tetrahydro-isoquinolin-8-yl]-4-methoxy-phenyl}-acetic acid] as the molecule, how does the IC50 [1] read?
Answer: 0.00482 µM

Question: And the IC50 [2]?
Answer: 0.005 µM

Question: `COc1ccc(CC(=O)O)cc1-c1ccc(F)c2c1CN(C(=O)C[C@@H](C)c1ccccc1)CC2` [Example 106, {3-[5-Fluoro-2-((R)-3-phenyl-butyryl)-1,2,3,4-tetrahydro-isoquinolin-8-yl]-4-methoxy-phenyl}-acetic acid] was tested. Which IC50 [1] did it give?
Answer: 0.0104 µM

Question: And the IC50 [2]?
Answer: 0.037 µM

Question: Which results are given for `COc1ccc(CC(=O)O)cc1-c1ccc(F)c2c1CN(C(=O)CC(C)(C)c1ccccc1)CC2` [Example 108, {3-[5-Fluoro-2-(3-methyl-3-phenyl-butyryl)-1,2,3,4-tetrahydro-isoquinolin-8-yl]-4-methoxy-phenyl}-acetic acid]?
Answer: IC50 [1]: 0.0101 µM; IC50 [2]: 0.092 µM

Question: What does the source list for `COc1ccc(CC(=O)O)cc1-c1ccc(F)c2c1CN(C(=O)CCn1nc(C)c3ccccc31)CC2` [Example 125, (3-{5-Fluoro-2-[3-(3-methyl-indazol-1-yl)-propionyl]-1,2,3,4-tetrahydro-isoquinolin-8-yl}-4-methoxy-phenyl)-acetic acid]?
Answer: IC50 [1]: 0.0163 µM; IC50 [2]: 0.113 µM

Question: What does the source list for `COc1ccc(CC(=O)O)cc1-c1ccc(F)c2c1CN(C(=O)NCc1ccc(F)cc1)CC2` [Example 132, {3-[5-Fluoro-2-(4-fluoro-benzylcarbamoyl)-1,2,3,4-tetrahydro-isoquinolin-8-yl]-4-methoxy-phenyl}-acetic acid]?
Answer: IC50 [1]: 0.0151 µM; IC50 [2]: > 1 µM

Question: Which results are given for `COc1ccc(CC(=O)O)cc1-c1ccc(F)c2c1CN(C(=O)OCc1cccc(F)c1)CC2` [Example 138, 8-(5-Carboxymethyl-2-methoxy-phenyl)-5-fluoro-3,4-dihydro-1H-isoquinoline-2-carboxylic acid 3-fluoro-benzyl ester]?
Answer: IC50 [1]: 0.00542 µM; IC50 [2]: 0.908 µM

Question: `COc1ccc(CC(=O)O)cc1-c1ccc(F)c2c1CN(C(=O)OCc1ccc(F)cc1)CC2` [Example 139, 8-(5-Carboxymethyl-2-methoxy-phenyl)-5-fluoro-3,4-dihydro-1H-isoquinoline-2-carboxylic acid 4-fluoro-benzyl ester] was tested. Which IC50 [1] did it give?
Answer: 0.00253 µM

Question: What about the IC50 [2] of the same molecule?
Answer: 0.097 µM

Question: What does the source list for `COc1ccc(CC(=O)O)cc1-c1ccc(F)c2c1CN(C(=O)OCc1ccccc1F)CC2` [Example 146, 8-(5-Carboxymethyl-2-methoxy-phenyl)-5-fluoro-3,4-dihydro-1H-isoquinoline-2-carboxylic acid 2-fluoro-benzyl ester]?
Answer: IC50 [1]: 0.00306 µM; IC50 [2]: 0.266 µM

Question: How did the IC50 [1] turn out when `COc1ccc(CC(=O)O)cc1-c1ccc(F)c2c1CN(C(=O)OCc1cccc(F)c1F)CC2` [Example 147, 8-(5-Carboxymethyl-2-methoxy-phenyl)-5-fluoro-3,4-dihydro-1H-isoquinoline-2-carboxylic acid 2,3-difluoro-benzyl ester] was run?
Answer: 0.00251 µM

Question: What about the IC50 [2] of the same molecule?
Answer: 0.622 µM

Question: What does the source list for `COc1ccc(CC(=O)O)cc1-c1ccc(Cl)c2c1CN(C(=O)OCc1ccccc1)CC2` [Example 154, 8-(5-Carboxymethyl-2-methoxy-phenyl)-5-chloro-3,4-dihydro-1H-isoquinoline-2-carboxylic acid benzyl ester]?
Answer: IC50 [1]: 0.0059 µM; IC50 [2]: 0.307 µM

Question: What does the source list for `COc1ccc(CC(=O)O)cc1-c1ccc(F)c2c1CN(C(=O)OCc1ccccc1)CC2` [Example 157, 8-(5-Carboxymethyl-2-methoxy-phenyl)-5-fluoro-3,4-dihydro-1H-isoquinoline-2-carboxylic acid benzyl ester]?
Answer: IC50 [1]: 0.0117 µM; IC50 [2]: 0.153 µM

Question: What does the source list for `O=C(O)COc1ccc(OC(F)(F)F)c(-c2ccc(F)c3c2CN(C(=O)OCc2ccccc2)CC3)c1` [Example 162, 8-(5-Carboxymethoxy-2-trifluoromethoxy-phenyl)-5-fluoro-3,4-dihydro-1H-isoquinoline-2-carboxylic acid benzyl ester]?
Answer: IC50 [1]: 0.00247 µM; IC50 [2]: 0.17 µM

Question: What does the source list for `CC(C)Oc1ccc(OCC(=O)O)cc1-c1ccc(F)c2c1CN(C(=O)OCc1ccccc1)CC2` [Example 163, 8-(5-Carboxymethoxy-2-isopropoxy-phenyl)-5-fluoro-3,4-dihydro-1H-isoquinoline-2-carboxylic acid benzyl ester]?
Answer: IC50 [1]: 0.00794 µM; IC50 [2]: 0.141 µM

Question: With `COc1cc(CC(=O)O)ccc1-c1ccc(F)c2c1CN(C(=O)OCc1ccccc1)CC2` [Example 166, 8-(4-Carboxymethyl-2-methoxy-phenyl)-5-fluoro-3,4-dihydro-1H-isoquinoline-2-carboxylic acid benzyl ester] as the molecule, how does the IC50 [1] read?
Answer: 0.0045 µM

Question: And the IC50 [2]?
Answer: 0.117 µM

Question: `O=C(O)Cc1cc2c(c(-c3ccc(F)c4c3CN(C(=O)OCc3ccccc3)CC4)c1)OCCO2` [Example 168, 8-(7-Carboxymethyl-2,3-dihydro-benzo[1,4]dioxin-5-yl)-5-fluoro-3,4-dihydro-1H-isoquinoline-2-carboxylic acid benzyl ester] was tested. Which IC50 [1] did it give?
Answer: 0.0179 µM

Question: What about the IC50 [2] of the same molecule?
Answer: 0.133 µM

Question: For `COc1ccc(CC(=O)O)cc1-c1ccc(C#N)c2c1CN(C(=O)OCc1ccccc1)CC2` [Example 169, 8-(5-Carboxymethyl-2-methoxy-phenyl)-5-cyano-3,4-dihydro-1H-isoquinoline-2-carboxylic acid benzyl ester], which IC50 [1] is on record?
Answer: 0.00917 µM

Question: And the IC50 [2]?
Answer: 0.146 µM

Question: Which results are given for `COc1ccc(OCC(=O)O)cc1-c1ccc(F)c2c1CN(C(=O)OCc1ccccc1)CC2` [Example 177, 8-(5-Carboxymethoxy-2-methoxy-phenyl)-5-fluoro-3,4-dihydro-1H-isoquinoline-2-carboxylic acid benzyl ester]?
Answer: IC50 [1]: 0.0213 µM; IC50 [2]: 0.539 µM

Question: With `COc1ccc(OCC(=O)O)cc1-c1ccc(F)c2c1CN(C(=O)[C@@H]1C[C@H]1c1ccccc1)CC2` [Example 182, {3-[5-Fluoro-2-((1R,2R)-2-phenyl-cyclopropanecarbonyl)-1,2,3,4-tetrahydro-isoquinolin-8-yl]-4-methoxy-phenoxy}-acetic acid] as the molecule, how does the IC50 [1] read?
Answer: 0.00436 µM

Question: And the IC50 [2]?
Answer: 0.034 µM

Question: What does the source list for `COc1cc(CC(=O)O)ccc1-c1ccc(F)c2c1CN(C(=O)CCc1cn(C)c3ccccc13)CC2` [Example 183, (4-{5-Fluoro-2-[3-(1-methyl-1H-indol-3-yl)-propionyl]-1,2,3,4-tetrahydro-isoquinolin-8-yl}-3-methoxy-phenyl)-acetic acid]?
Answer: IC50 [1]: 0.00046 µM; IC50 [2]: 0.194 µM

Question: Which IC50 [1] does the source give for `COc1cc(CC(=O)O)ccc1-c1ccc(F)c2c1CN(C(=O)CCCc1ccccc1F)CC2` [Example 185, (4-{5-Fluoro-2-[4-(2-fluoro-phenyl)-butyryl]-1,2,3,4-tetrahydro-isoquinolin-8-yl}-3-methoxy-phenyl)-acetic acid] here?
Answer: 0.00128 µM

Question: What about the IC50 [2] of the same molecule?
Answer: 0.097 µM

Question: For `COc1cc(CC(=O)O)ccc1-c1ccc(F)c2c1CN(C(=O)CCCc1ccccc1)CC2` [Example 187, {4-[5-Fluoro-2-(4-phenyl-butyryl)-1,2,3,4-tetrahydro-isoquinolin-8-yl]-3-methoxy-phenyl}-acetic acid], which IC50 [1] is on record?
Answer: 0.00089 µM

Question: And the IC50 [2]?
Answer: 0.091 µM

Question: Which results are given for `COc1cc(CC(=O)O)ccc1-c1ccc(F)c2c1CN(C(=O)CC(C)(C)c1ccccc1)CC2` [Example 188, {4-[5-Fluoro-2-(3-methyl-3-phenyl-butyryl)-1,2,3,4-tetrahydro-isoquinolin-8-yl]-3-methoxy-phenyl}-acetic acid]?
Answer: IC50 [1]: 0.00053 µM; IC50 [2]: 0.008 µM

Question: What does the source list for `COc1cc(CC(=O)O)ccc1-c1ccc(F)c2c1CN(C(=O)C[C@@H](C)c1ccccc1)CC2` [Example 189, {4-[5-Fluoro-2-((R)-3-phenyl-butyryl)-1,2,3,4-tetrahydro-isoquinolin-8-yl]-3-methoxy-phenyl}-acetic acid]?
Answer: IC50 [1]: 0.00104 µM; IC50 [2]: 0.062 µM

Question: How did the IC50 [1] turn out when `COc1cc(CC(=O)O)ccc1-c1ccc(F)c2c1CN(C(=O)COCc1ccccc1Cl)CC2` [Example 193, (4-{2-[2-(2-Chloro-benzyloxy)-acetyl]-5-fluoro-1,2,3,4-tetrahydro-isoquinolin-8-yl}-3-methoxy-phenyl)-acetic acid] was run?
Answer: 0.00138 µM

Question: And the IC50 [2]?
Answer: 0.094 µM

Question: Which results are given for `COc1cc(CC(=O)O)ccc1-c1ccc(F)c2c1CN(C(=O)CCc1ccccc1C)CC2` [Example 194, {4-[5-Fluoro-2-(3-o-tolyl-propionyl)-1,2,3,4-tetrahydro-isoquinolin-8-yl]-3-methoxy-phenyl}-acetic acid]?
Answer: IC50 [1]: 0.00075 µM; IC50 [2]: 0.188 µM

Question: For `CCOc1ccc(CC(=O)O)cc1-c1ccc(F)c2c1CN(C(=O)OCc1ccccc1)CC2` [Example 195, 8-(5-Carboxymethyl-2-ethoxy-phenyl)-5-fluoro-3,4-dihydro-1H-isoquinoline-2-carboxylic acid benzyl ester], which IC50 [1] is on record?
Answer: 0.00106 µM

Question: What about the IC50 [2] of the same molecule?
Answer: 0.021 µM

Question: Which results are given for `CCCOc1ccc(CC(=O)O)cc1-c1ccc(F)c2c1CN(C(=O)OCc1ccccc1)CC2` [Example 197, 8-(5-Carboxymethyl-2-propoxy-phenyl)-5-fluoro-3,4-dihydro-1H-isoquinoline-2-carboxylic acid benzyl ester]?
Answer: IC50 [1]: 0.00028 µM; IC50 [2]: 0.024 µM

From patent US9255090B2, “Heterocyclyl derivatives and their use as prostaglandin D2 receptor modulators” (Actelion Pharmaceuticals Ltd., priority 2012, dated 2016)
